Experimental findings from patent publication US20260355196A1, “INHIBITORS AND DEGRADERS OF PIP4K PROTEIN” (Larkspur Biosciences, Inc., priority 2023, published 2026) are described below.

The assay has as its target T1, PIP4K2C (Homo sapiens, UniProt Q8TBX8).
T1 sequence (Q8TBX8 1-421): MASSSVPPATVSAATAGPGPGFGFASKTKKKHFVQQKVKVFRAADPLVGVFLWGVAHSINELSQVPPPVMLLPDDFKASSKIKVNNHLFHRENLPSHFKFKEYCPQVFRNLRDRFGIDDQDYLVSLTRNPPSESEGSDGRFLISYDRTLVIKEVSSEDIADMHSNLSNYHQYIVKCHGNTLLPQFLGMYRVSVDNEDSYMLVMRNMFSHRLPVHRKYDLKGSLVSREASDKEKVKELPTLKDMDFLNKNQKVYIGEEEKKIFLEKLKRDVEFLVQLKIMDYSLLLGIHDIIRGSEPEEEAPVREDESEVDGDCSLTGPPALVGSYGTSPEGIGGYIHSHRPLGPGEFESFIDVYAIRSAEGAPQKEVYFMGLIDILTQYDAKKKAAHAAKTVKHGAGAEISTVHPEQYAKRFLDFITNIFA
In words: HiBiT PIP4K2C degradation assay in MOLT-4 cells (endogenous PIP4K2C C-terminally tagged with HiBiT). The class given is cell-based. On the set-up: untagged in primary human PBMCs and monocyte-derived dendritic cells. To be noted: 6 hours of incubation time, rather than 24 hours; MOLT-4, top concentration 10 micromolar; read-out: HiBIT-degradation MOLT4 PIP4k2C DC50 (6 hours, marked *). The essentials:
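MOLT-4 cells with endogenous PIP4K2C C-terminally HiBiT-tagged by CRISPR were treated with a 10-point, 3-fold dilution series from 10 micromolar, in duplicate, for 24 h or 6 h at 37 C. Remaining tagged protein read by HiBiT lytic luminescence; DC50 from Hill-equation fit.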
In general terms: The HiBiT peptide binds its large partner to form an active luciferase.
Broadly, the DC50 is the concentration at which degradation of the target reaches its halfway point. As for `O=C1CCC(Nc2ccc(N3CCC(CN4CCN(C(=O)[C@H]5CC[C@H](Nc6ncc(F)c(-c7cccc(N8CCCOC8=O)c7)n6)CC5)CC4)CC3)c(F)c2)C(=O)N1` (stereo partly drawn) [Compound 428, trans-3-((3-fluoro-4-(4-((4-(4-((5-fluoro-4-(3-(2-oxo-1,3-oxazinan-3-yl)phenyl)pyrimidin-2-yl)amino)cyclohexane-1-carbonyl)piperazin-1-yl)methyl)piperidin-1-yl)phenyl)amino)piperidine-2,6-dione], the DC50 is < 0.5 µM.

Take `O=C1CCC(Nc2ccc(N3CCC(N4CCC(C(=O)N[C@H]5CC[C@H](Nc6ncc(F)c(-c7cccc(-c8ccc[nH]c8=O)c7)n6)CC5)CC4)CC3)c(F)c2)C(=O)N1` (stereo partly drawn) [Compound 429, trans-1′-(4-((2,6-dioxopiperidin-3-yl)amino)-2-fluorophenyl)-N-(4-((5-fluoro-4-(3-(2-oxo-1,2-dihydropyridin-3-yl)phenyl)pyrimidin-2-yl)amino)cyclohexyl)-[1,4′-bipiperidine]-4-carboxamide]: the DC50 is < 0.5 µM. In the case of `O=C1CCC(Nc2ccc(N3CCC(CN4CCN(C(=O)[C@H]5CC[C@H](Nc6ncc(F)c(-c7cccc(-c8ccc[nH]c8=O)c7)n6)CC5)CC4)CC3)c(F)c2)C(=O)N1` (stereo partly drawn) [Compound 430, 3-((3-fluoro-4-(4-((4-(trans-4-((5-fluoro-4-(3-(2-oxo-1,2-dihydropyridin-3-yl)phenyl)pyrimidin-2-yl)amino)cyclohexane-1-carbonyl)piperazin-1-yl)methyl)piperidin-1-yl)phenyl)amino)piperidine-2,6-dione] it was < 0.5 µM; in that of `O=C1CCC(Nc2ccc(N3CCC(N4CCC(NC(=O)[C@H]5CC[C@H](Nc6ncc(F)c(-c7cccc(-n8ccccc8=O)c7)n6)CC5)CC4)C(F)(F)C3)c(F)c2)C(=O)N1` (stereo partly drawn) [Compound 431, trans-N-(1′-(4-((2,6-dioxopiperidin-3-yl)amino)-2-fluorophenyl)-3′,3′-difluoro-[1,4′-bipiperidin]-4-yl)-4-((5-fluoro-4-(3-(2-oxopyridin-1(2H)-yl)phenyl)pyrimidin-2-yl)amino)cyclohexane-1-carboxamide], < 0.5 µM; in that of `O=C1CCC(Nc2ccc(C3CCN(C4CCC(NC(=O)C5CCC(Nc6ncc(F)c(-c7cccc(-c8ccc[nH]c8=O)c7)n6)CC5)CC4)CC3)c(F)c2)C(=O)N1` [Compound 435, trans-(1r,4R)—N-((1S,4R)-4-(4-(4-(((S)-2,6-dioxopiperidin-3-yl)amino)-2-fluorophenyl)piperidin-1-yl)cyclohexyl)-4-((5-fluoro-4-(3-(2-oxo-1,2-dihydropyridin-3-yl)phenyl)pyrimidin-2-yl)amino)cyclohexane-1-carboxamide], < 0.5 µM. As to `O=C1CC[C@@H](Nc2ccc(N3CCC(N4CCC(NC(=O)[C@H]5CC[C@H](Nc6ncc(F)c(-c7cccc(-n8ccccc8=O)c7)n6)CC5)CC4)CC3)c(F)c2)C(=O)N1` [Compound 440, trans-N-(1′-(4-(((R)-2,6-dioxopiperidin-3-yl)amino)-2-fluorophenyl)-[1,4′-bipiperidin]-4-yl)-4-((5-fluoro-4-(3-(2-oxopyridin-1(2H)-yl)phenyl)pyrimidin-2-yl)amino)cyclohexane-1-carboxamide], the DC50 is < 0.5 µM.

Regarding `O=C1CCC(Nc2ccc(N3CCC(N4CCC(O)(C(=O)N[C@H]5CC[C@H](Nc6ncc(F)c(-c7cccc(-n8ccccc8=O)c7)n6)CC5)CC4)CC3)c(F)c2)C(=O)N1` (stereo partly drawn) [Compound 444, trans-1′-(4-((2,6-dioxopiperidin-3-yl)amino)-2-fluorophenyl)-N-(4-((5-fluoro-4-(3-(2-oxopyridin-1(2H)-yl)phenyl)pyrimidin-2-yl)amino)cyclohexyl)-4-hydroxy-[1,4′-bipiperidine]-4-carboxamide], the DC50 was < 0.5 µM.

For the molecule `O=C1CCC(Nc2ccc(C3CCN([C@H]4CC[C@H](C(=O)N[C@H]5CC[C@H](Nc6ncc(F)c(-c7cccc(N8CCOC8=O)c7)n6)CC5)CC4)CC3)c(F)c2)C(=O)N1` (stereo partly drawn) [Compound 446, trans-(1r,4R)-4-(4-(4-((2,6-dioxopiperidin-3-yl)amino)-2-fluorophenyl)piperidin-1-yl)-N-((1r,4R)-4-((5-fluoro-4-(3-(2-oxooxazolidin-3-yl)phenyl)pyrimidin-2-yl)amino)cyclohexyl)cyclohexane-1-carboxamide], the DC50 is < 0.5 µM.

For the molecule `O=C1CCC(Nc2ccc(C3CCN([C@H]4CC[C@H](C(=O)N[C@H]5CC[C@H](Nc6ncc(F)c(-c7cccc(N8CCCCC8=O)c7)n6)CC5)CC4)CC3)c(F)c2)C(=O)N1` (stereo partly drawn) [Compound 447, trans-(1r,4R)-4-(4-(4-((2,6-dioxopiperidin-3-yl)amino)-2-fluorophenyl)piperidin-1-yl)-N-((1r,4R)-4-((5-fluoro-4-(3-(2-oxopiperidin-1-yl)phenyl)pyrimidin-2-yl)amino)cyclohexyl)cyclohexane-1-carboxamide], the DC50 was < 0.5 µM.

Consider `O=C1CCC(Nc2ccc(N3CCN([C@H]4CC[C@H](C(=O)N[C@H]5CC[C@H](Nc6ncc(F)c(-c7cccc(-c8ccc[nH]c8=O)c7)n6)CC5)CC4)CC3)c(F)c2)C(=O)N1` (stereo partly drawn) [Compound 450, trans-4-(4-(4-((2,6-dioxopiperidin-3-yl)amino)-2-fluorophenyl)piperazin-1-yl)-N-(trans-4-((5-fluoro-4-(3-(2-oxo-1,2-dihydropyridin-3-yl)phenyl)pyrimidin-2-yl)amino)cyclohexyl)cyclohexane-1-carboxamide], for which the DC50 is < 0.5 µM. In the case of `O=C1CCC(Nc2ccc(N3CCC(N4CCC(NC(=O)[C@H]5CC[C@H](Nc6ncc(F)c(-c7cccc(-c8ccc[nH]c8=O)c7)n6)CC5)CC4)C(F)(F)C3)c(F)c2)C(=O)N1` (stereo partly drawn) [Compound 451, trans-N-(1′-(4-((2,6-dioxopiperidin-3-yl)amino)-2-fluorophenyl)-3′,3′-difluoro-[1,4′-bipiperidin]-4-yl)-4-((5-fluoro-4-(3-(2-oxo-1,2-dihydropyridin-3-yl)phenyl)pyrimidin-2-yl)amino)cyclohexane-1-carboxamide] it was < 0.5 µM; in that of `O=C1CCC(Nc2ccc(N3CCC(N4CCC(NC(=O)[C@H]5CC[C@H](Nc6ncc(F)c(-c7cccc(-n8ccccc8=O)c7)n6)CC5)CC4)C(F)C3)c(F)c2)C(=O)N1` (stereo partly drawn) [Compound 452, trans-N-(1′-(4-((2,6-dioxopiperidin-3-yl)amino)-2-fluorophenyl)-3′-fluoro-[1,4′-bipiperidin]-4-yl)-4-((5-fluoro-4-(3-(2-oxopyridin-1(2H)-yl)phenyl)pyrimidin-2-yl)amino)cyclohexane-1-carboxamide], < 0.5 µM.

For `O=C1CCC(Nc2ccc(N3CCC(N4CCC(NC(=O)[C@H]5CC[C@H](Nc6ncc(F)c(-c7cccc(-c8ccc[nH]c8=O)c7)n6)CC5)CC4)C(F)C3)c(F)c2)C(=O)N1` (stereo partly drawn) [Compound 453, trans-N-(1′-(4-((2,6-dioxopiperidin-3-yl)amino)-2-fluorophenyl)-3′-fluoro-[1,4′-bipiperidin]-4-yl)-4-((5-fluoro-4-(3-(2-oxo-1,2-dihydropyridin-3-yl)phenyl)pyrimidin-2-yl)amino)cyclohexane-1-carboxamide], the DC50 is < 0.5 µM.

`O=C1CC[C@@H](Nc2ccc(C3CCN([C@H]4CC[C@H](C(=O)N[C@H]5CC[C@H](Nc6ncc(F)c(-c7cccc(-c8ccc[nH]c8=O)c7)n6)CC5)CC4)CC3)c(F)c2)C(=O)N1` [Compound 454, trans-4-(4-(4-(((R)-2,6-dioxopiperidin-3-yl)amino)-2-fluorophenyl)piperidin-1-yl)-N-(trans-4-((5-fluoro-4-(3-(2-oxo-1,2-dihydropyridin-3-yl)phenyl)pyrimidin-2-yl)amino)cyclohexyl)cyclohexane-1-carboxamide]: the DC50 is < 0.5 µM. In the case of `O=C1CC[C@H](Nc2ccc(C3CCN([C@H]4CC[C@H](C(=O)N[C@H]5CC[C@H](Nc6ncc(F)c(-c7cccc(-n8ccccc8=O)c7)n6)CC5)CC4)CC3)c(F)c2)C(=O)N1` [Compound 457, (1S,4R)-4-(4-(4-(((S)-2,6-dioxopiperidin-3-yl)amino)-2-fluorophenyl)piperidin-1-yl)-N-((1r,4R)-4-((5-fluoro-4-(3-(2-oxopyridin-1(2H)-yl)phenyl)pyrimidin-2-yl)amino)cyclohexyl)cyclohexane-1-carboxamide] it was < 0.5 µM. Turning to `O=C1CCC(Nc2ccc(N3CCN(CC4(O)CCN(C(=O)[C@H]5CC[C@H](Nc6ncc(F)c(-c7cccc(-c8ccccc8)c7)n6)CC5)CC4)CC3)c(F)c2)C(=O)N1` (stereo partly drawn) [Compound 463, trans-3-[3-fluoro-4-[4-[[1-[4-[[5-fluoro-4-(3-phenylphenyl)pyrimidin-2-yl]amino]cyclohexanecarbonyl]-4-hydroxy-4-piperidyl]methyl]piperazin-1-yl]anilino]piperidine-2,6-dione], the DC50 is < 0.5 µM. `O=C1CCC(Nc2ccc(C3CCN(CC4(O)CCN(C(=O)[C@H]5CC[C@H](Nc6ncc(F)c(-c7cccc(-c8ccccc8)c7)n6)CC5)CC4)CC3)c(F)c2)C(=O)N1` (stereo partly drawn) [Compound 464, 3-((4-(1-((1-(trans-4-((4-([1,1′-biphenyl]-3-yl)-5-fluoropyrimidin-2-yl)amino)cyclohexane-1-carbonyl)-4-hydroxypiperidin-4-yl)methyl)piperidin-4-yl)-3-fluorophenyl)amino)piperidine-2,6-dione]: the DC50 is < 0.5 µM.
